From PubChem BioAssay (NCI) come the findings set out here.

Structures are written as SMILES.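 Cultured in 96-well plates, cells were exposed to test compound for 48 hours across five concentrations. TGI: concentration producing complete growth inhibition.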

Test systems include T-47D breast; OVCAR-5 ovarian; MDA-MB-231 breast; SNB-19 CNS; UACC-62 melanoma; UO-31 renal; SF-295 CNS; HS 578T breast; SK-MEL-28 melanoma; SF-268 CNS; SW-620 colon; HL-60(TB) leukemia; M14 melanoma; A549 NSCLC; CCRF-CEM leukemia; KM12 colon; MDA-N; HOP-62 NSCLC; U251 CNS; HOP-92 NSCLC.
Common to all, as to assay: growth of human tumour cells (NCI), 48 h

`COc1ccc(NC(=S)Nc2cc(C)cc(C)n2)cc1`: the TGI in the assay with T-47D breast, in the assay on OVCAR-5 ovarian, in the assay on MDA-MB-231 breast, in the assay on SNB-19 CNS, with UACC-62 melanoma and in the assay on UO-31 renal was more than 100 µM throughout. Besides, the TGI with SF-295 CNS, in the assay with HS 578T breast, in the assay with SK-MEL-28 melanoma, in the assay with SF-268 CNS, in the assay with SW-620 colon and with HL-60(TB) leukemia was more than 100 µM throughout. Besides, the TGI in the assay on M14 melanoma, in the assay on A549 NSCLC, in the assay with CCRF-CEM leukemia, in the assay on KM12 colon, in the assay on MDA-N and with HOP-62 NSCLC was more than 100 µM each time. Besides, the TGI in the assay on U251 CNS was more than 100 µM.
As to `O=[N+]([O-])C(=C(Cl)Cl)C(Cl)=C(Cl)Cl`, the TGI in the assay on T-47D breast is 0.289 µM; with OVCAR-5 ovarian, 3.94 µM; in the assay on MDA-MB-231 breast, 2.11 µM; in the assay on SNB-19 CNS, 11.2 µM; in the assay with UACC-62 melanoma, 1.75 µM; in the assay on UO-31 renal, 2.94 µM. The TGI was found to be 9.54 µM in the assay on SF-295 CNS; 3.29 µM with HS 578T breast; 0.912 µM with SK-MEL-28 melanoma; 4.92 µM in the assay with SF-268 CNS; 0.157 µM in the assay on SW-620 colon; 1.03 µM in the assay on HOP-92 NSCLC. Also, the TGI with HL-60(TB) leukemia is 0.0573 µM; in the assay with M14 melanoma it was 0.0871 µM; in the assay with A549 NSCLC it was 19.6 µM; in the assay on KM12 colon, 5.51 µM; in the assay on MDA-N, 1.24 µM; with HOP-62 NSCLC it was 25.3 µM. Further, in the assay with U251 CNS, the TGI amounted to 7.26 µM.
Regarding `N=C(N)c1ccc(/C=C/c2ccc(C(=N)N)cc2)cc1`, the TGI in the assay on T-47D breast, with OVCAR-5 ovarian, in the assay on MDA-MB-231 breast, in the assay with SNB-19 CNS, in the assay with UACC-62 melanoma and in the assay with UO-31 renal was more than 100 µM throughout. For the same compound, the TGI with SF-295 CNS, with HS 578T breast, in the assay with SK-MEL-28 melanoma, in the assay with SF-268 CNS, in the assay with SW-620 colon and in the assay on HOP-92 NSCLC was more than 100 µM throughout. For the same compound, the TGI in the assay with M14 melanoma, with A549 NSCLC, in the assay on CCRF-CEM leukemia, in the assay with KM12 colon, in the assay on MDA-N and with HOP-62 NSCLC was more than 100 µM in each case. Also, the TGI in the assay on U251 CNS is more than 100 µM.
Consider `N#CC(C#N)=C1C(=Cc2ccc(OCCCCCCCCCCSSCCCCCCCCCCOc3ccc(C=C4C(=C(C#N)C#N)c5ccccc5C4=C(C#N)C#N)cc3)cc2)C(=C(C#N)C#N)c2ccccc21`, for which the TGI is more than 100 µM with T-47D breast; 35.5 µM in the assay on OVCAR-5 ovarian; more than 100 µM with MDA-MB-231 breast; 40.2 µM in the assay on UO-31 renal; 45.7 µM with SF-295 CNS; 52.4 µM in the assay with HS 578T breast. The TGI in the assay on SK-MEL-28 melanoma is 52.4 µM; in the assay with SF-268 CNS, 55.1 µM; with SW-620 colon, 52.1 µM; in the assay on HOP-92 NSCLC, 34.9 µM; in the assay with HL-60(TB) leukemia, 2.36 µM; in the assay with M14 melanoma, 47.9 µM. The TGI in the assay on A549 NSCLC was 31 µM; in the assay on KM12 colon, 78.1 µM; in the assay with MDA-N, 88.3 µM; with HOP-62 NSCLC it was 47.6 µM; in the assay on U251 CNS, 46.8 µM.
Turning to `CN(C)c1ccc(C2CC(c3ccc4ccccc4c3O)=NN2)cc1` (configuration not stated), the TGI with T-47D breast, in the assay on OVCAR-5 ovarian, in the assay with MDA-MB-231 breast, with UACC-62 melanoma, in the assay on UO-31 renal and in the assay with SF-295 CNS was more than 100 µM each time. The TGI in the assay with HS 578T breast, with SK-MEL-28 melanoma, in the assay on SF-268 CNS, in the assay with SW-620 colon, in the assay with HOP-92 NSCLC and in the assay with M14 melanoma was more than 100 µM each time. Further, the TGI in the assay with A549 NSCLC was more than 100 µM; in the assay with CCRF-CEM leukemia, 83.3 µM; with KM12 colon it was more than 100 µM; with MDA-N, more than 100 µM; with HOP-62 NSCLC it was more than 100 µM; in the assay with U251 CNS it was more than 100 µM.
For the compound `COc1cccc(-c2nc3ccccc3c(=O)[nH]2)c1`, the TGI is 50.5 µM with T-47D breast; more than 100 µM in the assay on OVCAR-5 ovarian; 58.9 µM with MDA-MB-231 breast; 46.7 µM in the assay on SNB-19 CNS; 44 µM with UACC-62 melanoma; 45.2 µM in the assay on UO-31 renal. The TGI in the assay with SF-295 CNS is 88.9 µM; with HS 578T breast it was 47.9 µM; in the assay with SK-MEL-28 melanoma, 96.6 µM; in the assay with SF-268 CNS, 44.8 µM; with SW-620 colon, more than 100 µM; in the assay on HOP-92 NSCLC, more than 100 µM. Besides, the TGI was more than 100 µM in the assay with HL-60(TB) leukemia; more than 100 µM in the assay with M14 melanoma; 49.4 µM in the assay on A549 NSCLC; 86.9 µM in the assay on KM12 colon; 36.9 µM in the assay on MDA-N; 37.1 µM in the assay on HOP-62 NSCLC. Further, the TGI with U251 CNS came to 44.7 µM.
Regarding `CCCN(CCC)CCc1ccc(OC2=CCN(C)CC2)cc1`, the TGI is more than 100 µM with T-47D breast; more than 100 µM in the assay on OVCAR-5 ovarian; more than 100 µM with MDA-MB-231 breast; more than 100 µM in the assay with SNB-19 CNS; more than 100 µM in the assay with UACC-62 melanoma; 88.3 µM with UO-31 renal. Further, the TGI in the assay with SF-295 CNS is more than 100 µM; in the assay with HS 578T breast, more than 100 µM; in the assay on SK-MEL-28 melanoma, 91.7 µM; in the assay with SF-268 CNS it was more than 100 µM; with SW-620 colon, more than 100 µM; in the assay with HL-60(TB) leukemia it was more than 100 µM. Moreover, the TGI in the assay on M14 melanoma was 29.1 µM; in the assay on A549 NSCLC, more than 100 µM; in the assay on CCRF-CEM leukemia it was more than 100 µM; in the assay on KM12 colon it was more than 100 µM; in the assay with MDA-N, more than 100 µM; with HOP-62 NSCLC, more than 100 µM. In the assay on U251 CNS, this compound came in with a TGI of more than 100 µM.
Consider `CO[C@]1(c2ccc([N+](=O)[O-])cc2)Oc2ccccc2C(=O)[C@@]1(Nc1ccc(C=O)cc1)OC`, for which the TGI with T-47D breast, in the assay on OVCAR-5 ovarian, in the assay on MDA-MB-231 breast, in the assay on SNB-19 CNS, with UACC-62 melanoma and in the assay with UO-31 renal was more than 10 µM in each case. The TGI with SF-295 CNS, in the assay with HS 578T breast, in the assay on SK-MEL-28 melanoma, with SF-268 CNS, in the assay on SW-620 colon and in the assay on HL-60(TB) leukemia was more than 10 µM in each case. The TGI in the assay with M14 melanoma, in the assay on A549 NSCLC, in the assay on CCRF-CEM leukemia, in the assay with KM12 colon, in the assay with MDA-N and in the assay with HOP-62 NSCLC was more than 10 µM each time. The same compound registered a TGI in the assay on U251 CNS of more than 10 µM.
Consider `C[N+](C)(CCCn1ccnc1[N+](=O)[O-])CCCn1ccnc1[N+](=O)[O-]`, for which the TGI in the assay with T-47D breast, with OVCAR-5 ovarian, in the assay on MDA-MB-231 breast, with UACC-62 melanoma, in the assay on UO-31 renal and in the assay on SF-295 CNS was more than 100 µM in each case. Moreover, the TGI with HS 578T breast, in the assay on SK-MEL-28 melanoma, in the assay on SF-268 CNS, with SW-620 colon, in the assay with HL-60(TB) leukemia and with M14 melanoma was more than 100 µM throughout. Also, the TGI in the assay with A549 NSCLC, with CCRF-CEM leukemia, in the assay with KM12 colon, in the assay on MDA-N, with HOP-62 NSCLC and in the assay with U251 CNS was more than 100 µM throughout.
For the compound `Cc1ccc(N=N/C(=N/NC(=O)c2cc(Cl)ccc2O)c2ccc(N(CCC#N)CCC#N)cc2C)cc1`, the TGI in the assay on T-47D breast is 56.2 µM; with OVCAR-5 ovarian it was more than 100 µM; in the assay with MDA-MB-231 breast, more than 100 µM; with SNB-19 CNS it was more than 100 µM; in the assay on UACC-62 melanoma it was 59.7 µM; in the assay with UO-31 renal it was 64.9 µM. For the same compound, the TGI with SF-295 CNS was 83.3 µM; in the assay on HS 578T breast, 46.4 µM; in the assay on SF-268 CNS it was more than 100 µM; in the assay on HL-60(TB) leukemia, more than 100 µM; with M14 melanoma, more than 100 µM; with A549 NSCLC, more than 100 µM. The TGI in the assay on CCRF-CEM leukemia, in the assay with KM12 colon, in the assay on MDA-N, with HOP-62 NSCLC and with U251 CNS was more than 100 µM throughout.
For the compound `COc1ccc(N2CN3OC(=O)N(c4ccc(OC)cc4)[C@@]3(c3ccccc3)C2)cc1`, the TGI was 69.2 µM in the assay with T-47D breast; more than 100 µM in the assay with OVCAR-5 ovarian; 99.6 µM in the assay with MDA-MB-231 breast; more than 100 µM in the assay on SNB-19 CNS; more than 100 µM in the assay on UACC-62 melanoma; more than 100 µM in the assay with UO-31 renal. Besides, the TGI in the assay with SF-295 CNS is 92.9 µM; in the assay with HS 578T breast, more than 100 µM; with SK-MEL-28 melanoma it was more than 100 µM; in the assay with SF-268 CNS, more than 100 µM; in the assay on SW-620 colon, more than 100 µM; in the assay on HOP-92 NSCLC, more than 100 µM. Besides, the TGI with HL-60(TB) leukemia is 67.9 µM; in the assay on M14 melanoma it was more than 100 µM; in the assay with A549 NSCLC, more than 100 µM; with KM12 colon it was more than 100 µM; in the assay on MDA-N, 22.6 µM; with HOP-62 NSCLC, more than 100 µM. The TGI with U251 CNS was more than 100 µM.
As to `NC(=O)C(=CNC(N)=S)C(N)=O`, the TGI in the assay on T-47D breast, in the assay with OVCAR-5 ovarian, in the assay on MDA-MB-231 breast, with SNB-19 CNS, with UACC-62 melanoma and with UO-31 renal was more than 100 µM in each case. Further, the TGI in the assay on SF-295 CNS, in the assay with HS 578T breast, in the assay with SK-MEL-28 melanoma, with SF-268 CNS, in the assay with SW-620 colon and in the assay on HL-60(TB) leukemia was more than 100 µM each time. Further, the TGI in the assay on M14 melanoma, in the assay on A549 NSCLC, in the assay on CCRF-CEM leukemia, in the assay on KM12 colon, in the assay with MDA-N and with HOP-62 NSCLC was more than 100 µM throughout. Moreover, the TGI in the assay with U251 CNS was more than 100 µM.
